Measurements from patent US20210236580A1, “Methods and Compositions for Mitigating Symptoms of Acute Respiratory Distress Syndrome” (Sytheon Ltd, priority 2020, published 2021).

Tests used:
IL-6 [1] = assay: IL-6 release by urban dust-stimulated human keratinocytes (ELISA); type: cell-based; details: keratinocytes + 100 ug/ml urban dust, 24 hours; 100 μM (39 μg/ml)
Method: (§1) Human Keratinocyte Cell Culture: Human adult epidermal keratinocytes were grown using EpiLife Media (60 μM calcium) supplemented with 0.2% v/v bovine pituitary extract, 1 μg/ml recombinant human insulin-like growth factor-I, 0.18 µg/ml hydrocortisone, 5 μg/ml bovine transferrin, 0.2 ng/ml human epidermal growth factor. The cells were cultured at 37 C and 5% CO2. When a sufficient number of cells had been grown, they were seeded into 24-well plates and grown until confluent. Once confluent the cells were cultured overnight in hydrocortisone free EpiLife Media.
(§2) Preparation of Urban Dust & treatment: Urban dust was obtained from Sigma Chemicals (Standard Reference Material 1649b) and prepared at 10 mg/ml in hydrocortisone free EpiLife media. The urban dust solution was then sonicated for 10 minutes on ice. The test material was prepared in hydrocortisone free media supplemented with 100 ug/ml urban dust. […] Finally, one set of cells was not exposed to urban dust and was used to establish a baseline for each cytokine. […]
(§3) A series of standards was prepared and 100 μl of each of these standards was dispensed into two wells (duplicates) in the ELISA well plate. […] Once a sufficient level of color development had occurred, 50 μl of stop solution […]) was added to each well and the plate was read at 460 nm.

IL-6 [2] = assay: IL-6 in LPS-exposed 3D ciliated airway tissue, sandwich ELISA; type: cell-based, human; details: 1 μg/ml LPS, 48 hours, 100 μg/ml
Method: Further dilutions were made in sterile distilled water (dH2O). […] After three hours of incubation with test materials, cells were exposed to endotoxin—1 μg/ml LPS (lipopolysaccharides from Escherichia coli O113:H10, Associates of Cape Cod, East Falmouth, Mass.) and the incubation continued for an additional 48 hours.
The tissue cultures were then evaluated for IL-6 which was quantified by Sandwich Elisa. All colorimetric measurements were performed using Molecular Devices microplate reader MAX190 and SoftMax3.1.2PRO software. Statistical significance was assessed with paired Student test. Deviations of ≥20% as compared to water control with p values below 0.05 were considered statistically significant.

interferon gamma = assay: IFN-γ in medium of LPS-exposed 3D ciliated airway tissues, sandwich ELISA; type: cell-based, human; details: second value column of Table 6, 100 μg/ml
Method: (§6) The respective test materials were stored at room temperature and samples were solubilized in sterile water (LPS, TC, EMB) or DMSO (DEX) at 20 mg/ml, afterward all further dilutions were made in sterile distilled water. All test materials except LPS were assayed at 100 μg ml (LPS was added topically at 1 μg/ml on Day 2). Furthermore, TC and EMB were tested at 50 μg/ml and in two combinations: 50 μg/ml:50 μg/ml and 25 μg/ml:25 μg/ml. Samples were added to the feeder chamber medium contacting the basal side of the tissues on Day 1, then also topically on Day 2, together with LPS. All experimental conditions were tested in triplicates.
(§7) Twenty-four hours after pre-incubation with the test substances, the tissue cultures were exposed to 1 μg/ml endotoxin LPS and the incubation was continued for 48 additional hours. Following the incubation, the experiment tissue culture-conditioned medium was stored at −20° C. until further processing. Subsequently, IFN-α and IFN-γ were quantified in the tissue culture-conditioned medium by sandwich ELISA.

IL-8 [3] = assay: IL-8 secretion in LPS-induced human bronchial epithelial cells (HBEpC), ELISA; type: cell-based; details: 48 hrs
Text: (§4) HBEpC provide an excellent model for all aspects of respiratory epithelial function and diseases, particularly those related to airway viral/bacterial infections, including tissue repair mechanisms, signaling changes and potential treatments relevant to lung injuries, mechanical and oxidative stress, inflammation, etc., including that arising from or associated with pulmonary diseases and smoking. In this study, the inflammatory cytokines IL-6 and IL-8 were induced through pretreatment of the HBEpC with lipopolysaccharide (Cat #L2630, Sigma, Saint Louis, Mo.). After 3 hours of treatment the test and control materials were added to the cultures which were then incubated at […] for 48 hrs. Thereafter the IL-8 and IL-6 levels of the test cultures were measured by ELISA.
(§5) Each experimental condition and control were assayed at least in six replicates and statistical significance assessed with paired Student test. In conducting the assay, total insoluble proteins were quantified to determine the effect of the test materials on cell proliferation according to the method described by Voigt (Voigt, W. Sulforhodamine B assay and chemosensitivity. Methods Mol Med. 2005; 110:39-48).

IL-8 [4] = assay: IL-8 release by urban dust-stimulated human keratinocytes (ELISA); type: cell-based; details: keratinocytes + 100 ug/ml urban dust, 24 hours; 100 μM (39 μg/ml)
Method: as §1, §2, §3

interferon alpha = assay: IFN-α in medium of LPS-exposed 3D ciliated airway tissues, sandwich ELISA; type: cell-based, human; details: first value column of Table 6, 100 μg/ml
Method: as §6, §7

IL-6 [5] = assay: IL-6 secretion in LPS-induced human bronchial epithelial cells (HBEpC), ELISA; type: cell-based; details: 48 hrs, 20 μM
Text: as §4, §5

IL-6R = target: T1, IL-6R (Homo sapiens, UniProt P08887); details: Covid-19 patients, after treatment; preliminary findings; cited from earlier work
T1 construct: host or cells: endogenous receptor in Covid-19 patients (in vivo)
T1 sequence (P08887 20-468): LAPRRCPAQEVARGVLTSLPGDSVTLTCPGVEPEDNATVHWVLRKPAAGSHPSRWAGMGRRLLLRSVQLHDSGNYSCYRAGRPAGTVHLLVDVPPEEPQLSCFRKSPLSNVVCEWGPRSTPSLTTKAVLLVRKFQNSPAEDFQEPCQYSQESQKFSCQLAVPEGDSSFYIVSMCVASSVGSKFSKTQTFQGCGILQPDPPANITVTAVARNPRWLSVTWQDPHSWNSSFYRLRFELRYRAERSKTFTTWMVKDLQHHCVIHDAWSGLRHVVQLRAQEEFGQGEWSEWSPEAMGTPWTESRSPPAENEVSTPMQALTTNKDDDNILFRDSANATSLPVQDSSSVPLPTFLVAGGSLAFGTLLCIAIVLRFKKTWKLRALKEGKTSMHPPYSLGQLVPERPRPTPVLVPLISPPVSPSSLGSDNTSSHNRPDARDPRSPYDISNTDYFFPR

Compound: C[C@@H]1C[C@H]2[C@@H]3CCC4=CC(=O)C=C[C@]4(C)[C@@]3(F)[C@@H](O)C[C@]2(C)[C@@]1(O)C(=O)CO [Dexamethasone]
- IL-6 (IL-6 [1]): 61.0 ± 13.9 pg/mL
- IL-6 (% control) (IL-6 [2]): 123 % control
- Interferon alpha (interferon gamma): 20 pg/mL
- IL-8 (% control) (IL-8 [3]; 20 μM): 98 % control
- IL-8 (% control) (IL-8 [3]; 40 μM): 91 % control
- IL-8 (IL-8 [4]): 86.9 ± 24.5 pg/mL
- Interferon alpha (interferon alpha): 6 pg/mL
- IL-6 (% control) (IL-6 [5]): 77 % control

Compound: Actemra: humanized anti-IL-6R monoclonal antibody
- effect on fevers (IL-6R): rapidly reduced fevers
- patients experiencing a reduced need for supplemental oxygen (IL-6R): 75%
